The values that follow come from US7109242B2, “Carboxylic compound and medicine comprising the same” (Kowa Company, Ltd., priority 2003, dated 2006).

One assay deals with C57BL/KsJ db/db mouse. Nature of the assay: Actions of lowering plasma glucose, insulin and triglyceride in vivo in db/db mice. Particulars: for Reduction rate of plasma glucose / Reduction rate of plasma insulin / Reduction rate of plasma triglyceride: blood two hours after administration on 14th day; for Plasma glucose reducing action (ED25): oral once a day for 14 days, dose required for reduction of plasma glucose concentration by 25%, vehicle group as 100%. From the text:
The compounds of the present invention and the aforementioned Compound A and pioglitazone hydrochloride each as a reference compound were subjected to the measurements of the actions of lowering plasma glucose, insulin, and triglyceride in vivo according to the following method (Metabolism, 48, pp34–40, 1999, Journal of Medicinal Chemistry, 44, pp2601–2611, 2001).
C57BL/KsJ db/db mouse (Journal of Clinical Investigation, 85, pp 962–967, 1990) was used as an experimental animal, which was developed in The Jackson Laboratory (USA) and is known as a model animal with obesity, hyperlipemia, hyperinsulinemia, and insulin resistance.
Bloods were collected from seven weeks old db/db mice from their orbital sinus by using heparin-treated capillary tubes. After centrifugation of the bloods, plasma was collected and then subjected to measurements of concentrations of plasma glucose, insulin, and triglyceride to divide the animals. From the next day of the day of blood collection, the administrations of the compounds were started. The compounds were orally administered once a day for 14 days. On the 14th day, blood was collected from orbital sinus two hours after the administration of the compounds. Plasma was collected, and subjected to measurements of concentrations of plasma glucose, insulin, and triglyceride.
The dose required for reduction of plasma glucose concentration by 25% (ED25) was obtained using the value of the vehicle administered group as 100% (Arznimittel-Forschung, 40, pp156–162, 1990).

The target in a further assay is T1, PPAR γ (Homo sapiens, UniProt P37231).
T1 sequence (P37231 1-505): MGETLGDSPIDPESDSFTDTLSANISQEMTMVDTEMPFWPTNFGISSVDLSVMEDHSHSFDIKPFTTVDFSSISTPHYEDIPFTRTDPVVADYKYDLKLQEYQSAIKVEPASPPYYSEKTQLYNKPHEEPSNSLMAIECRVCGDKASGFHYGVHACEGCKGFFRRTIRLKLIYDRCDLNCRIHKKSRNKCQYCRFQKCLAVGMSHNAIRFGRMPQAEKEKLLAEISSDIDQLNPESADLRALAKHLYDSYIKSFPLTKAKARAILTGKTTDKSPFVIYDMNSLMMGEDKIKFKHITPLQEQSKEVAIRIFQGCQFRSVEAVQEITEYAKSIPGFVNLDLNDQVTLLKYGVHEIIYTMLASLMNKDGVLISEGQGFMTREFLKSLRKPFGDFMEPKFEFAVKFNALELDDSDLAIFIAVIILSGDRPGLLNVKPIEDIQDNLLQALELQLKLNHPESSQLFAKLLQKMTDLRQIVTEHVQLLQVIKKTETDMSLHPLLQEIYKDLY
Particulars: mode of action of thiazolidinedione type compounds; cited from earlier work.

The mark [1] stands for this setting: 0.5 mg/kg orally once a day for 14 days, 0.5 mg/kg.
Where [2] appears, read: 1.5 mg/kg orally once a day for 14 days, 1.5 mg/kg.
[3] abbreviates: 5 mg/kg orally once a day for 14 days, 5 mg/kg.
Where [4] appears, read: 1 mg/kg orally once a day for 14 days.
Where [5] appears, read: 3 mg/kg orally once a day for 14 days.
The mark [6] stands for this setting: 10 mg/kg orally once a day for 14 days.
Where [7] appears, read: 30 mg/kg orally once a day for 14 days.

Counter-ions that a name gives are not always drawn.

Turning to `O=C(O)C(Cl)(Cl)CCCCCCCC(O)CCc1ccc(Cl)cc1` (single isomer, unassigned; (+)) [Example 5(4), (+)-2,2-dichloro-12-(4-chlorophenyl)-10-hydroxydodecanoic acid], the “Reduction rate of plasma glucose” value in the assay on C57BL/KsJ db/db mouse (setting [1]) is 20.7 ± 14.3; in the assay on C57BL/KsJ db/db mouse (setting [2]), 40.6 ± 5.8; in the assay with C57BL/KsJ db/db mouse (setting [3]) it was 42.4 ± 11.4. The “Reduction rate of plasma insulin” value in the assay on C57BL/KsJ db/db mouse (setting [1]) is on record as −22.0 ± 84.1; with C57BL/KsJ db/db mouse (setting [2]), 39.5 ± 37.5; in the assay on C57BL/KsJ db/db mouse (setting [3]), 43.8 ± 26.3. The “Reduction rate of plasma triglyceride” value with C57BL/KsJ db/db mouse (setting [1]) was 42.0 ± 17.3; with C57BL/KsJ db/db mouse (setting [2]) it was 48.3 ± 6.9; in the assay with C57BL/KsJ db/db mouse (setting [3]) it was 44.6 ± 9.7. The “Plasma glucose reducing action (ED25)” value in the assay with C57BL/KsJ db/db mouse and in the assay on C57BL/KsJ db/db mouse (listed as Example 5 (4)) was 0.5 mg/kg each time.

As for `O=C(O)C(Cl)(Cl)CCCCCCCC(O)CCc1ccc(Cl)cc1` (single isomer, unassigned; (-)) [Example 5(5), (−)-2,2-dichloro-12-(4-chlorophenyl)-10-hydroxydodecanoic acid], the “Reduction rate of plasma glucose” value is recorded as −10.3 with C57BL/KsJ db/db mouse (setting [1]), 28.5 ± 10.7 with C57BL/KsJ db/db mouse (setting [2]) and 49.2 ± 9.6 in the assay with C57BL/KsJ db/db mouse (setting [3]). In addition, the “Reduction rate of plasma insulin” value stood at 20.8 ± 32.0 in the assay on C57BL/KsJ db/db mouse (setting [1]), 20.4 ± 38.0 in the assay with C57BL/KsJ db/db mouse (setting [2]) and 68.9 ± 13.2 with C57BL/KsJ db/db mouse (setting [3]). In addition, the “Reduction rate of plasma triglyceride” value in the assay on C57BL/KsJ db/db mouse (setting [1]) was found to be 23.0 ± 13.8; in the assay on C57BL/KsJ db/db mouse (setting [2]), 40.5 ± 15.3; in the assay with C57BL/KsJ db/db mouse (setting [3]), 37.6 ± 11.3. The “Plasma glucose reducing action (ED25)” value with C57BL/KsJ db/db mouse amounted to 1.7 mg/kg.

For `O=C(O)C(Cl)(Cl)CCCCCCCCCCc1ccc(Cl)cc1` [Compound A], the “Reduction rate of plasma glucose” value is on record as −5.0 ± 19.5 with C57BL/KsJ db/db mouse (setting [4]), 25.4 ± 17.7 with C57BL/KsJ db/db mouse (setting [5]) and 65.3 ± 5.0 in the assay with C57BL/KsJ db/db mouse (setting [6]). Moreover, the entries for the “Reduction rate of plasma insulin” value in the assay with C57BL/KsJ db/db mouse (setting [4]), in the assay on C57BL/KsJ db/db mouse (setting [5]) and with C57BL/KsJ db/db mouse (setting [6]) were 0.7 ± 77.6, 7.4 ± 18.7 and 10.7 ± 61.6, respectively. The “Reduction rate of plasma triglyceride” value was 23.4 ± 15.3 in the assay on C57BL/KsJ db/db mouse (setting [4]), 27.5 ± 17.5 in the assay on C57BL/KsJ db/db mouse (setting [5]) and 54.6 ± 4.1 in the assay with C57BL/KsJ db/db mouse (setting [6]). Besides, in the assay with C57BL/KsJ db/db mouse, the “Plasma glucose reducing action (ED25)” value came out at 2.8 mg/kg. In addition, the “PPAR γ activating action” value at PPAR γ is reported as “no PPAR γ activating action”.

With `O=C(O)C(Cl)(Cl)CCCCCCCC(O)CCc1ccc(Cl)cc1` (stereo not shown) [Example 2(4), 2,2-dichloro-12-(4-chlorophenyl)-10-hydroxydodecanoic acid], the “Reduction rate of plasma glucose” value worked out at 44.4 ± 17.0 with C57BL/KsJ db/db mouse (setting [5]), 66.6 ± 4.1 with C57BL/KsJ db/db mouse (setting [6]) and 75.2 ± 3.1 with C57BL/KsJ db/db mouse (setting [7]). Further, the “Reduction rate of plasma insulin” value in the assay on C57BL/KsJ db/db mouse (setting [5]) is −12.5 ± 58.1; in the assay on C57BL/KsJ db/db mouse (setting [6]), 39.1 ± 21.3; with C57BL/KsJ db/db mouse (setting [7]), 64.3 ± 10.1. The entries for the “Reduction rate of plasma triglyceride” value in the assay on C57BL/KsJ db/db mouse (setting [5]), in the assay on C57BL/KsJ db/db mouse (setting [6]) and in the assay with C57BL/KsJ db/db mouse (setting [7]) were 53.2 ± 6.9, 54.1 ± 5.5 and 55.7 ± 6.3, respectively. For the same compound, the “Plasma glucose reducing action (ED25)” value in the assay on C57BL/KsJ db/db mouse and with C57BL/KsJ db/db mouse (listed as Example 2 (4)) was 0.6 mg/kg each time.

Turning to `O=C(O)C(Cl)(Cl)CCCCCCCCCC(O)c1ccc(Cl)cc1` (stereo not shown) [Example 3(4), 2,2-dichloro-12-(4-chlorophenyl)-12-hydroxydodecanoic acid], in the assay on C57BL/KsJ db/db mouse (setting [5]), the “Reduction rate of plasma glucose” value is 29.3 ± 28.7, the “Reduction rate of plasma insulin” value was −2.8 ± 46.6 and the “Reduction rate of plasma triglyceride” value is recorded as 23.2 ± 24.7. Further, in the assay on C57BL/KsJ db/db mouse (setting [6]), the “Reduction rate of plasma glucose” value turned out to be 53.4 ± 14.7, the “Reduction rate of plasma insulin” value is recorded as 39.0 ± 10.3 and the “Reduction rate of plasma triglyceride” value stood at 40.6 ± 8.9. Moreover, in the assay with C57BL/KsJ db/db mouse (setting [7]), the “Reduction rate of plasma glucose” value came out at 74.5 ± 3.0, the “Reduction rate of plasma insulin” value was 61.7 ± 18.5 and the “Reduction rate of plasma triglyceride” value was 25.8 ± 24.7. Further, in the assay on C57BL/KsJ db/db mouse, the “Plasma glucose reducing action (ED25)” value is listed as 2.4 mg/kg.

Consider `O=C(O)C(Cl)(Cl)CCCCCCCCC(O)Cc1ccc(Cl)cc1` (stereo not shown) [Example 4(4), 2,2-dichloro-12-(4-chlorophenyl)-11-hydroxydodecanoic acid], for which, in the assay with C57BL/KsJ db/db mouse (setting [5]), the “Reduction rate of plasma glucose” value is listed as 35.0 ± 21.2, the “Reduction rate of plasma insulin” value is given as −19.8 ± 71.8 and the “Reduction rate of plasma triglyceride” value worked out at 45.5 ± 13.9. Moreover, in the assay with C57BL/KsJ db/db mouse (setting [6]), the “Reduction rate of plasma glucose” value was determined as 65.2 ± 8.0, the “Reduction rate of plasma insulin” value worked out at 20.3 ± 24.9 and the “Reduction rate of plasma triglyceride” value is listed as 58.8 ± 3.7. Further, in the assay with C57BL/KsJ db/db mouse (setting [7]), the “Reduction rate of plasma glucose” value came to 67.2 ± 6.8, the “Reduction rate of plasma insulin” value is on record as 51.1 ± 20.2 and the “Reduction rate of plasma triglyceride” value was 54.1 ± 6.6. The “Plasma glucose reducing action (ED25)” value in the assay with C57BL/KsJ db/db mouse is on record as 1.1 mg/kg.

Regarding `CCc1ccc(CCOc2ccc(CC3SC(=O)NC3=O)cc2)nc1` (stereo not shown) [Pioglitazone hydrochloride, reference compound], the results for the “Reduction rate of plasma glucose” value in the assay on C57BL/KsJ db/db mouse (setting [5]), in the assay on C57BL/KsJ db/db mouse (setting [6]) and with C57BL/KsJ db/db mouse (setting [7]) were 13.4 ± 18.3, 22.3 ± 22.8 and 45.2 ± 21.2, respectively. Further, the results for the “Reduction rate of plasma insulin” value with C57BL/KsJ db/db mouse (setting [5]), in the assay on C57BL/KsJ db/db mouse (setting [6]) and in the assay on C57BL/KsJ db/db mouse (setting [7]) were −24.7 ± 119.3, −18.7 ± 52.5 and 13.9 ± 22.7, respectively. For the same compound, the “Reduction rate of plasma triglyceride” value in the assay on C57BL/KsJ db/db mouse (setting [5]) is recorded as 9.4 ± 15.9; in the assay with C57BL/KsJ db/db mouse (setting [6]), 25.4 ± 16.9; with C57BL/KsJ db/db mouse (setting [7]), 38.2 ± 8.1. In addition, the “Plasma glucose reducing action (ED25)” value in the assay with C57BL/KsJ db/db mouse is recorded as 8.3 mg/kg.
